# Measured values from ChEMBL document CHEMBL1697781, “Assessment of the health effects of chemicals in humans: II. Construction of an adverse effects database for QSAR modeling” (Curr Drug Discov Technol, 2004).
# System: Hepatotoxicity
# Test: FDA HLAED, liver enzyme composite activity
# Details: human
SMILES,Composite Activity - Active,Composite Activity - Marginal
CC(=O)O.C[C@H]1C[C@@H]2[C@H]([C@@H](O)C[C@@]3(C)[C@H]2CC[C@]3(O)C(=O)CO)[C@@]2(C)C=CC(=O)C=C12,0,0
FC(F)OC(F)(F)C(F)Cl (stereo unspecified),0,0
N[C@@H](Cc1ccc(N(CCCl)CCCl)cc1)C(=O)O,0,0
NC12CC3CC(CC(C3)C1)C2 [AMANTADINE],0,0
NCCCCCC(=O)O [AMINOCAPROIC ACID],0,0
CN(C)CCC=C1c2ccccc2CCc2ccccc21 [AMITRIPTYLINE],0,0
C[C@@H]1[C@H](O)[C@@H](C)/C=C/C=C/C=C/C=C/C=C/C=C/C=C/[C@H](O[C@@H]2O[C@H](C)[C@@H](O)[C@H](N)[C@@H]2O)C[C@@H]2O[C@](O)(C[C@@H](O)C[C@@H](O)[C@H](O)CC[C@@H](O)C[C@@H](O)CC(=O)O[C@H]1C)C[C@H](O)[C@H]2C(=O)O [AMPHOTERICIN B],0,0
CC(=O)Oc1ccccc1C(=O)O [ASPIRIN],0,0
CN1[C@@H]2CC[C@H]1C[C@@H](OC(c1ccccc1)c1ccccc1)C2 [BENZTROPINE],0,0
CC(=O)OCC(=O)[C@@]1(O)[C@@H](C)C[C@H]2[C@@H]3CCC4=CC(=O)C=C[C@]4(C)[C@@]3(F)[C@@H](O)C[C@@]21C [BETAMETHASONE ACETATE],0,0
CC(=O)OCC(=O)[C@@]1(OC(=O)C(C)C)[C@@H](C)C[C@H]2[C@@H]3CCC4=CC(=O)C=C[C@]4(C)[C@@]3(F)[C@@H](O)C[C@@]21C [BETAMETHASONE ACIBUTATE],0,0
C[C@H]1C[C@H]2[C@@H]3CCC4=CC(=O)C=C[C@]4(C)[C@@]3(F)[C@@H](O)C[C@]2(C)[C@@]1(OC(=O)c1ccccc1)C(=O)CO [BETAMETHASONE BENZOATE],0,0
CCCC(=O)O[C@]1(C(=O)COC(=O)CC)[C@@H](C)C[C@H]2[C@@H]3CCC4=CC(=O)C=C[C@]4(C)[C@@]3(F)[C@@H](O)C[C@@]21C [BETAMETHASONE BUTYRATE PROPIONATE],0,0
CCC(=O)OCC(=O)[C@@]1(OC(=O)CC)[C@@H](C)C[C@H]2[C@@H]3CCC4=CC(=O)C=C[C@]4(C)[C@@]3(F)[C@@H](O)C[C@@]21C [BETAMETHASONE DIPROPIONATE],0,0
CCCCC(=O)O[C@]1(C(=O)CO)[C@@H](C)C[C@H]2[C@@H]3CCC4=CC(=O)C=C[C@]4(C)[C@@]3(F)[C@@H](O)C[C@@]21C [BETAMETHASONE VALERATE],0,0
C[C@H]1C[C@H]2[C@@H]3CCC4=CC(=O)C=C[C@]4(C)[C@@]3(F)[C@@H](O)C[C@]2(C)[C@@]1(O)C(=O)CO [BETAMETHASONE],0,0
CS(=O)(=O)OCCCCOS(C)(=O)=O [BUSULFAN],0,0

SMILES,Composite Activity - Active,Composite Activity - Marginal
Cc1nnc(SCC2=C(C(=O)O)N3C(=O)[C@@H](NC(=O)Cn4cnnn4)[C@H]3SC2)s1 [CEFAZOLIN],0,0
CN1C(=O)CCS(=O)(=O)C1c1ccc(Cl)cc1 (stereo unspecified) [CHLORMEZANONE],0,0
O=C(O)C1N=C(c2ccccc2)c2cc(Cl)ccc2NC1=O (stereo unspecified) [CLORAZEPIC ACID],0,0
O=C1CN(/N=C/c2ccc(-c3ccc([N+](=O)[O-])cc3)o2)C(O)=N1 [DANTROLENE],0,0
CC(=O)OCC(=O)[C@@]1(OC(=O)c2ccco2)[C@H](C)C[C@H]2[C@@H]3CCC4=CC(=O)C=C[C@]4(C)[C@@]3(F)[C@@H](O)C[C@@]21C [DEXAMETHASONE ACEFURATE],0,0
CC(=O)OCC(=O)[C@@]1(O)[C@H](C)C[C@H]2[C@@H]3CCC4=CC(=O)C=C[C@]4(C)[C@@]3(F)[C@@H](O)C[C@@]21C [DEXAMETHASONE ACETATE],0,0
CCC(=O)OCC(=O)[C@@]1(OC(=O)CC)[C@H](C)C[C@H]2[C@@H]3CCC4=CC(=O)C=C[C@]4(C)[C@@]3(F)[C@@H](O)C[C@@]21C [DEXAMETHASONE DIPROPIONATE],0,0
CCCCC(=O)O[C@]1(C(=O)CO)[C@H](C)C[C@H]2[C@@H]3CCC4=CC(=O)C=C[C@]4(C)[C@@]3(F)[C@@H](O)C[C@@]21C [DEXAMETHASONE VALARATE],0,0
C[C@@H]1C[C@H]2[C@@H]3CCC4=CC(=O)C=C[C@]4(C)[C@@]3(F)[C@@H](O)C[C@]2(C)[C@@]1(O)C(=O)CO [DEXAMETHASONE],0,0
CC(C)N(CCC(C(N)=O)(c1ccccc1)c1ccccn1)C(C)C (stereo unspecified) [DISOPYRAMIDE],0,0
COc1cccc2c1C(=O)c1c(O)c3c(c(O)c1C2=O)C[C@@](O)(C(=O)CO)C[C@@H]3O[C@H]1C[C@H](N)[C@H](O)[C@H](C)O1 [DOXORUBICIN],0,0
CC[C@@H](CO)NCCN[C@@H](CC)CO [ETHAMBUTOL],0,0
CCNC(C)Cc1cccc(C(F)(F)F)c1 (stereo unspecified) [FENFLURAMINE],0,0
O=c1[nH]c(=O)n([C@H]2C[C@H](O)[C@@H](CO)O2)cc1F [FLOXURIDINE],0,0
Nc1nc(=O)[nH]cc1F [FLUCYTOSINE],0,0
CCCCCCCCCC(=O)OCCN1CCN(CCCN2c3ccccc3Sc3ccc(C(F)(F)F)cc32)CC1 [FLUPHENAZINE DECANOATE],0,0
CCCCCCC(=O)OCCN1CCN(CCCN2c3ccccc3Sc3ccc(C(F)(F)F)cc32)CC1 [FLUPHENAZINE ENANTHATE],0,0

# Same assay, conditions: human, Liver
SMILES,Composite Activity - Active,Composite Activity - Marginal
CC1=C(C(=O)O)N2C(=O)[C@@H](NC(=O)[C@H](N)c3ccccc3)[C@H]2SC1 [CEPHALEXIN ANHYDROUS],0,0
CN(C)CCC=C1c2ccccc2C=Cc2ccccc21 [CYCLOBENZAPRINE],0,0
CN1C(=O)CN=C(c2ccccc2)c2cc(Cl)ccc21 [DIAZEPAM],0,0
CCc1cc(C(N)=S)ccn1 [ETHIONAMIDE],0,0
